According to patent US20060088496A1, “Personal care compositions with salts of hydroxypropyl trialkylammonium substituted mono-saccharide” (Unilever Home & Personal Care USA, Division of Conopco, Inc., priority 2004, published 2006):

System: Porcine epidermis
Assay: moisturization efficacy test: weight change of porcine skin with relative humidity on an environmental microbalance
Conditions: difference in percent weight change, treated minus untreated skin, 1% active material in water solution; for From 0 to 80 to 20% Relative Humidity: 90 minutes at 20% relative humidity after 80% (water retained); for From 0 through 80% Relative Humidity: 90 minutes at 80% relative humidity (water picked up)
Description: This Example provides the results of moisturization efficacy tests. These tests involved evaluation on Porcine epidermis utilized as a human skin model. Equipment and protocol are outlined below. An environmental microbalance (Model MB-300W, VTI Corp., 2708 W 84th Street, Hialeah, Fla. 33016) was programmed to measure the change in weight of porcine skin as a function of relative humidity at a constant temperature and air flow. The porcine skin was evaluated before and after treatment with aqueous solutions of humectants to determine adsorption and retention of moisture. Sample preparation was done as follows: • Epidermal sections of porcine skin were cut to approximately 4 cm×1 cm. • The skin was washed in a 10% detergent solution and dried in a dessicator to a constant weight. This represents the Untreated material. • The skin was soaked in a 1% by weight aqueous solution of the test sample for 15 minutes, excess fluid was blotted off and the skin was dried to constant weight in a dessicator. This represents the Treated material. Sequence of conditions for the microbalance was as follows: • 30 minutes at 0% relative humidity. (Insures that sample is dry.) • 90 minutes at 80% relative humidity. […] (Determines amount of water retained.) The experiments were conducted as follows: • The weight of a piece of untreated skin was recorded continuously during the sequence. • The piece of untreated skin was treated with the test sample. • The weight of the treated piece of skin was recorded continuously during the sequence. • Data reduction consisted of calculating the percent weight change from the initial weight for the untreated and treated pieces of skin. The reported data was the difference between each treated piece and its corresponding untreated piece.

SMILES	From 0 to 80 to 20% Relative Humidity	From 0 through 80% Relative Humidity
OCC(O)CO [Glycerin]	0.10	0.21
C[N+](C)(C)CC(O)CCl.[Cl-] (stereo not shown) [Quat ® 188, 3-chloro-2-hydroxypropyl trimethylammonium chloride]	0.10	0.21
